Measurements reported in US7138361B2, “Herbicidal heterocycles” (E. I. du Pont de Nemours and Company, priority 2000, dated 2006).

Columns and labels:
Format in all cases: in vivo
[1] = tested on: Surinam grass (Brachiaria decumbens); experiment: Test B postemergence; settings: 13 to 15 days
Method in brief: (§1)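 Post-treatment, species sat 13–15 days under greenhouse conditions before visual scoring against controls, 0 (no effect) through 100 (complete control). Application preemergence to sown seeds or postemergence at 1- to 4-leaf stage, using a non-phytotoxic solvent/surfactant formulation.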

[2] = tested on: barnyardgrass (Echinochloa crus-galli); experiment: Test B postemergence; settings: 13 to 15 days
Method in brief: as §1

[3] = tested on: blackgrass (Alopecurus myosuroides); experiment: Test B postemergence; settings: 13 to 15 days
Method in brief: as §1

[4] = tested on: cocklebur (Xanthium strumarium); experiment: Test B postemergence; settings: 13 to 15 days
Method in brief: as §1

corn (Zea mays) [5] = experiment: Test B postemergence; settings: 13 to 15 days
Method in brief: as §1

[6] = tested on: crabgrass (Digitaria sanguinalis); experiment: Test B postemergence; settings: 13 to 15 days
Method in brief: as §1

[7] = tested on: giant foxtail (Setaria faberii); experiment: Test B postemergence; settings: 13 to 15 days
Method in brief: as §1

[8] = tested on: lambsquarters (Chenopodium album); experiment: Test B postemergence; settings: 13 to 15 days
Method in brief: as §1

[9] = tested on: morning glory (Ipomoea hederacea); experiment: Test B postemergence; settings: 13 to 15 days
Method in brief: as §1

[10] = tested on: pigweed (Amaranthus retroflexus); experiment: Test B postemergence; settings: 13 to 15 days
Method in brief: as §1

[11] = tested on: velvetleaf (Abutilon theophrasti); experiment: Test B postemergence; settings: 13 to 15 days
Method in brief: as §1

[12] = tested on: wheat (Triticum aestivum); experiment: Test B postemergence; settings: 13 to 15 days
Method in brief: as §1

wild oat (Avena fatua) = experiment: Test B postemergence; settings: 13 to 15 days
Method in brief: as §1

[13] = tested on: Surinam grass (Brachiaria decumbens); experiment: Test B preemergence
Method in brief: as §1

[14] = tested on: barnyardgrass (Echinochloa crus-galli); experiment: Test B preemergence
Method in brief: as §1

[15] = tested on: cocklebur (Xanthium strumarium); experiment: Test B preemergence
Method in brief: as §1

corn (Zea mays) [16] = experiment: Test B preemergence
Method in brief: as §1

[17] = tested on: crabgrass (Digitaria sanguinalis); experiment: Test B preemergence
Method in brief: as §1

[18] = tested on: giant foxtail (Setaria faberii); experiment: Test B preemergence
Method in brief: as §1

[19] = tested on: lambsquarters (Chenopodium album); experiment: Test B preemergence
Method in brief: as §1

[20] = tested on: morning glory (Ipomoea hederacea); experiment: Test B preemergence
Method in brief: as §1

[21] = tested on: pigweed (Amaranthus retroflexus); experiment: Test B preemergence
Method in brief: as §1

rice (Oryza saliva) [22] = experiment: Test B preemergence
Method in brief: as §1

[23] = tested on: velvetleaf (Abutilon theophrasti); experiment: Test B preemergence
Method in brief: as §1

[24] = tested on: barnyardgrass (Echinochloa crus-galli); experiment: Test B flooded paddy test; settings: Rate 1000 g/ha, scale of 0 to 100 where 0 is no effect and 100 is complete control, visually evaluated after 13 to 15 days
Method in brief: (§2)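 Greenhouse-held for 13 to 15 days after treatment at the 2-leaf stage, paddy-grown plants were scored visually against controls on a 0-to-100 control scale; a dash marks no test result.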

[25] = tested on: duck salad (Heteranthera limosa); experiment: Test B flooded paddy test; settings: Rate 1000 g/ha, scale of 0 to 100 where 0 is no effect and 100 is complete control, visually evaluated after 13 to 15 days
Method in brief: as §2

rice (Oryza saliva) [26] = experiment: Test B flooded paddy test; settings: Rate 1000 g/ha, scale of 0 to 100 where 0 is no effect and 100 is complete control, visually evaluated after 13 to 15 days
Method in brief: as §2

[27] = tested on: smallflower flatsedge (Cyperus difformis); experiment: Test B flooded paddy test; settings: Rate 1000 g/ha, scale of 0 to 100 where 0 is no effect and 100 is complete control, visually evaluated after 13 to 15 days
Method in brief: as §2

[28] = tested on: barnyardgrass (Echinochloa crus-galli); experiment: Test C flooded paddy test; settings: for Barnyardgrass plant response rating: Flooded Paddy, scale 0 to 100, 0 no effect, 100 complete control; for Plant response rating, Barnyardgrass: flooded paddy test, scale 0 to 100 (0 no effect, 100 complete control)
Method in brief: (§3)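 Response on a 0-to-100 scale (no effect to complete control) was assessed by eye versus controls. Plants had reached 2 leaves when treated in flooded paddy conditions. The assessment took place after 12–14 days of greenhouse growth.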

[29] = tested on: duck salad (Heteranthera limosa); experiment: Test C flooded paddy test; settings: for Ducksalad plant response rating: Flooded Paddy, scale 0 to 100, 0 no effect, 100 complete control; for Plant response rating, Ducksalad: flooded paddy test, scale 0 to 100 (0 no effect, 100 complete control)
Method in brief: as §3

rice (Oryza saliva) [30] = experiment: Test C flooded paddy test; settings: for Rice plant response rating: Flooded Paddy, scale 0 to 100, 0 no effect, 100 complete control; for Plant response rating, Rice: flooded paddy test, scale 0 to 100 (0 no effect, 100 complete control)
Method in brief: as §3

[31] = tested on: smallflower flatsedge (Cyperus difformis); experiment: Test C flooded paddy test; settings: for Flatsedge plant response rating: Flooded Paddy, scale 0 to 100, 0 no effect, 100 complete control; for Plant response rating, Flatsedge: flooded paddy test, scale 0 to 100 (0 no effect, 100 complete control)
Method in brief: as §3

[32] = Rate 125 g/ha, scale 0 (no effect) to 100 (complete control)
[33] = Rate 500 g/ha, scale 0 to 100, 0 is no effect, 100 is complete control
[34] = Preemergence, Rate 500 g/ha, scale 0 to 100, 0 no effect, 100 complete control
[35] = preemergence, Rate 125 g/ha, scale of 0 to 100 where 0 is no effect and 100 is complete control, 13 to 15 days

Compound: CC(C)Oc1ccn(C2CCN(c3cccc(C(F)(F)F)c3)C2=O)n1 (stereo not drawn) [Compound 59]
- Plant response rating, Surinam grass [1, 32]: 0
- Plant response rating, Surinam grass [1, 33]: 0
- Plant response rating, Barnyardgrass [2, 32]: 0
- Plant response rating, Barnyardgrass [2, 33]: 0
- Plant response rating, Blackgrass [3, 32]: 0
- Plant response rating, Blackgrass [3, 33]: 0
- Plant response rating, Cocklebur [4, 32]: 0
- Plant response rating, Cocklebur [4, 33]: 0
- Plant response rating, Corn (corn (Zea mays) [5]; [32]): 0
- Plant response rating, Corn (corn (Zea mays) [5]; [33]): 0
- Plant response rating, Crabgrass [6, 32]: 0
- Plant response rating, Crabgrass [6, 33]: 0
- Plant response rating, Foxtail, Giant [7, 32]: 0
- Plant response rating, Foxtail, Giant [7, 33]: 0
- Plant response rating, Lambsquarters [8, 32]: 0
- Plant response rating, Lambsquarters [8, 33]: 0
- Plant response rating, Morningglory [9, 32]: 0
- Plant response rating, Morningglory [9, 33]: 0
- Plant response rating, Pigweed [10, 32]: 0
- Plant response rating, Pigweed [10, 33]: 0
- Plant response rating, Velvetleaf [11, 32]: 0
- Plant response rating, Velvetleaf [11, 33]: 0
- Plant response rating, Wheat [12, 32]: 0
- Plant response rating, Wheat [12, 33]: 0
- Plant response rating, Wild Oat (wild oat (Avena fatua); [32]): 0
- Plant response rating, Wild Oat (wild oat (Avena fatua); [33]): 0
- Plant response rating, Surinam grass [13, 34]: 80
- Plant response rating, Surinam grass [13, 35]: 60
- Plant response rating, Barnyardgrass [14, 34]: 90
- Plant response rating, Barnyardgrass [14, 35]: 0
- Plant response rating, Cocklebur [15, 34]: 0
- Plant response rating, Cocklebur [15, 35]: 0
- Plant response rating, Corn (corn (Zea mays) [16]; [34]): 0
- Plant response rating, Corn (corn (Zea mays) [16]; [35]): 0
- Plant response rating, Crabgrass [17, 34]: 90
- Plant response rating, Crabgrass [17, 35]: 20
- Plant response rating, Foxtail, Giant [18, 34]: 70
- Plant response rating, Foxtail, Giant [18, 35]: 0
- Plant response rating, Lambsquarters [19, 34]: 100
- Plant response rating, Lambsquarters [19, 35]: 0
- Plant response rating, Morningglory [20, 34]: 0
- Plant response rating, Morningglory [20, 35]: 0
- Plant response rating, Pigweed [21, 34]: 0
- Plant response rating, Pigweed [21, 35]: 0
- Plant response rating, Rice (rice (Oryza saliva) [22]; [34]): 50
- Plant response rating, Rice (rice (Oryza saliva) [22]; [35]): 0
- Plant response rating, Velvetleaf [23, 34]: 0
- Plant response rating, Velvetleaf [23, 35]: 0
- Plant response rating, Barnyardgrass [24]: 100
- Plant response rating, Ducksalad [25]: 70
- Plant response rating, Rice (rice (Oryza saliva) [26]): 20
- Plant response rating, Flatsedge [27]: 90
- Barnyardgrass plant response rating ([28]; Rate 250 g/ha): 0
- Barnyardgrass plant response rating ([28]; Rate 500 g/ha): 30
- Plant response rating, Barnyardgrass ([28]; Rate 62 g/ha): 0
- Plant response rating, Barnyardgrass ([28]; Rate 125 g/ha): 0
- Ducksalad plant response rating ([29]; Rate 250 g/ha): 0
- Ducksalad plant response rating ([29]; Rate 500 g/ha): 0
- Plant response rating, Ducksalad ([29]; Rate 62 g/ha): 0
- Plant response rating, Ducksalad ([29]; Rate 125 g/ha): 0
- Rice plant response rating (rice (Oryza saliva) [30]; Rate 250 g/ha): 0
- Rice plant response rating (rice (Oryza saliva) [30]; Rate 500 g/ha): 20
- Plant response rating, Rice (rice (Oryza saliva) [30]; Rate 62 g/ha): 0
- Plant response rating, Rice (rice (Oryza saliva) [30]; Rate 125 g/ha): 0
- Flatsedge plant response rating ([31]; Rate 250 g/ha): 0
- Flatsedge plant response rating ([31]; Rate 500 g/ha): 30
- Plant response rating, Flatsedge ([31]; Rate 62 g/ha): 0
- Plant response rating, Flatsedge ([31]; Rate 125 g/ha): 0

Compound: CCC(C)Oc1ccn(C2CCN(c3cccc(C(F)(F)F)c3)C2=O)n1 (stereo not drawn) [Compound 58]
- Plant response rating, Surinam grass [1, 32]: 0
- Plant response rating, Surinam grass [1, 33]: 0
- Plant response rating, Barnyardgrass [2, 32]: 0
- Plant response rating, Barnyardgrass [2, 33]: 0
- Plant response rating, Blackgrass [3, 32]: 0
- Plant response rating, Blackgrass [3, 33]: 0
- Plant response rating, Cocklebur [4, 32]: 0
- Plant response rating, Cocklebur [4, 33]: 0
- Plant response rating, Corn (corn (Zea mays) [5]; [32]): 0
- Plant response rating, Corn (corn (Zea mays) [5]; [33]): 0
- Plant response rating, Crabgrass [6, 32]: 0
- Plant response rating, Crabgrass [6, 33]: 0
- Plant response rating, Foxtail, Giant [7, 32]: 0
- Plant response rating, Foxtail, Giant [7, 33]: 0
- Plant response rating, Lambsquarters [8, 32]: 0
- Plant response rating, Lambsquarters [8, 33]: 0
- Plant response rating, Morningglory [9, 32]: 0
- Plant response rating, Morningglory [9, 33]: 0
- Plant response rating, Pigweed [10, 32]: 0
- Plant response rating, Pigweed [10, 33]: 0
- Plant response rating, Velvetleaf [11, 32]: 0
- Plant response rating, Velvetleaf [11, 33]: 0
- Plant response rating, Wheat [12, 32]: 0
- Plant response rating, Wheat [12, 33]: 0
- Plant response rating, Wild Oat (wild oat (Avena fatua); [32]): 0
- Plant response rating, Wild Oat (wild oat (Avena fatua); [33]): 0
- Plant response rating, Surinam grass [13, 34]: 0
- Plant response rating, Surinam grass [13, 35]: 0
- Plant response rating, Barnyardgrass [14, 34]: 70
- Plant response rating, Barnyardgrass [14, 35]: 0
- Plant response rating, Cocklebur [15, 34]: 0
- Plant response rating, Cocklebur [15, 35]: 0
- Plant response rating, Corn (corn (Zea mays) [16]; [34]): 0
- Plant response rating, Corn (corn (Zea mays) [16]; [35]): 0
- Plant response rating, Crabgrass [17, 34]: 80
- Plant response rating, Crabgrass [17, 35]: 0
- Plant response rating, Foxtail, Giant [18, 34]: 70
- Plant response rating, Foxtail, Giant [18, 35]: 0
- Plant response rating, Lambsquarters [19, 34]: 0
- Plant response rating, Lambsquarters [19, 35]: 0
- Plant response rating, Morningglory [20, 34]: 0
- Plant response rating, Morningglory [20, 35]: 0
- Plant response rating, Pigweed [21, 34]: 0
- Plant response rating, Pigweed [21, 35]: 0
- Plant response rating, Rice (rice (Oryza saliva) [22]; [34]): 0
- Plant response rating, Rice (rice (Oryza saliva) [22]; [35]): 0
- Plant response rating, Velvetleaf [23, 34]: 0
- Plant response rating, Barnyardgrass [24]: 90
- Plant response rating, Ducksalad [25]: 70
- Plant response rating, Rice (rice (Oryza saliva) [26]): 20
- Plant response rating, Flatsedge [27]: 80
- Barnyardgrass plant response rating ([28]; Rate 250 g/ha): 0
- Barnyardgrass plant response rating ([28]; Rate 500 g/ha): 20
- Plant response rating, Barnyardgrass ([28]; Rate 62 g/ha): 0
- Plant response rating, Barnyardgrass ([28]; Rate 125 g/ha): 0
- Ducksalad plant response rating ([29]; Rate 250 g/ha): 0
- Ducksalad plant response rating ([29]; Rate 500 g/ha): 0
- Plant response rating, Ducksalad ([29]; Rate 62 g/ha): 0
- Plant response rating, Ducksalad ([29]; Rate 125 g/ha): 0
- Rice plant response rating (rice (Oryza saliva) [30]; Rate 250 g/ha): 0
- Rice plant response rating (rice (Oryza saliva) [30]; Rate 500 g/ha): 0
- Plant response rating, Rice (rice (Oryza saliva) [30]; Rate 62 g/ha): 0
- Plant response rating, Rice (rice (Oryza saliva) [30]; Rate 125 g/ha): 0
- Flatsedge plant response rating ([31]; Rate 250 g/ha): 0
- Flatsedge plant response rating ([31]; Rate 500 g/ha): 30
- Plant response rating, Flatsedge ([31]; Rate 62 g/ha): 0
- Plant response rating, Flatsedge ([31]; Rate 125 g/ha): 0
